Data: patent publication US11180510B2, “Xanthine derivatives and uses thereof as inhibitors of bromodomains of BET proteins” (Centre national de la recherche scientifique, priority 2017, dated 2021)
Several values for one entry are separate records, joined by “and”; a condition that tells them apart may be missing. Equal values may be shown once. Where a name gives a salt, the structure may show the parent alone. Read-outs that look alike come from different tables or passages of the source. One block for each compound: values may come before it.

What was measured:
Format in all cases: binding
[1] = molecular target: BRD4(BD1) (Homo sapiens, UniProt O60885); assay: HTRF assay, BRD4(BD1)/histone peptide interaction; design: made in house; conditions: for IC50: HTRF; for Ratio 4-1 vs 4-2: selectivity Brd4(BD1) vs Brd4(BD2), HTRF IC50
Description: (§1) HTRF assays were performed in white 384 Well Small Volume™ HiBase Polystyrene Microplates (Greiner) with a total working volume of 20 μL. Compounds were dispensed, with 100 nL per well (0.5% final DMSO), from a concentration stock of 10 mM in 100% DMSO and with serial DMSO dilutions, using an Echo® 550 robot from the Access Labcyte platform (Labcyte) and based on the transfer of liquid by acoustic wave. Then, 19.5 μL of buffer is added, using a Multidrop Combi (Thermo Fisher Scientific). […] All HTRF reagents (donor and acceptor) were purchased from CisBio Bioassays and reconstituted according to the supplier protocols. The peptide was purchased from Genic Bio Synthetic. The BRD4(1) protein was produced and purified in the laboratory.
(§2) Percentage of inhibition was calculated using the following equation: % inhibition=[(compound signal)−(min signal)]/[(max signal)−(min signal)]*100, where ‘max signal’ is the signal ratio with the compound vehicle alone (DMSO) and ‘min signal’ the signal ratio without peptide.
(§3) Selectivity profiles of bromodomain inhibitors were performed as described in HTRF screen section. […] HTRF detection reagents (EPIgeneous™ Binding Domain kits) were purchased from Cisbio Bioassays and used according to supplier's protocol. GST tagged bromodomain proteins were purchased from BPS Bioscience and histone peptide from Genic Bio Synthetic.

[2] = molecular target: Brd3(BD1) (Homo sapiens, UniProt Q15059); assay: HTRF BET selectivity profile, Brd3(BD1); design: GST tagged bromodomain proteins were purchased from BPS Bioscience; purchased BPS Bioscience; conditions: for Ratio 3-1 vs 3-2: selectivity Brd3(BD1) vs Brd3(BD2), HTRF IC50
Description: as §1, §2, §3

[3] = molecular target: T1, Brd2(BD1) (Homo sapiens, UniProt P25440); assay: HTRF BET selectivity profile, Brd2(BD1); conditions: for Ratio 2-1 vs 2-2: selectivity Brd2(BD1) vs Brd2(BD2), HTRF IC50
T1 construct: GST tagged bromodomain proteins were purchased from BPS Bioscience; purchased BPS Bioscience
Description: as §1, §2, §3

[4] = molecular target: T2, Brd4(BD2) (Homo sapiens, UniProt O60885); assay: HTRF BET selectivity profile, Brd4(BD2)
T2 construct: GST tagged bromodomain proteins were purchased from BPS Bioscience; purchased BPS Bioscience
Description: (§4) HTRF assays were performed in white 384 Well Small Volume™ HiBase Polystyrene Microplates (Greiner) with a total working volume of 20 μL. Compounds were dispensed, with 100 nL per well (0.5% final DMSO), from a concentration stock of 10 mM in 100% DMSO and with serial DMSO dilutions, using an Echo® 550 robot from the Access Labcyte platform (Labcyte) and based on the transfer of liquid by acoustic wave. Then, 19.5 μL of buffer is added, using a Multidrop Combi (Thermo Fisher Scientific). Finally, for each assay, 200 nL of master mix (protein+donor+acceptor) and 200 nL of peptide Is added in the assay wells according to the final concentration and buffer described in Table 3, using the Echo® 550 robot (Labcyte). The IC50 measurements were performed in triplicates (Table 2 and 3). All HTRF reagents (donor and acceptor) were purchased from CisBio Bioassays and reconstituted according to the supplier protocols. The peptide was purchased from Genic Bio Synthetic. The BRD4(1) protein was produced and purified in the laboratory. HTRF signals were measured, after a final incubation (3 h or 6 h or overnight at room temperature or 4° C., according to the bromodomain), using a PHERAstar FS (BMG Labtech) with an excitation filter at 337 nm and fluorescence wavelength measurement at 620 and 665 nm, an integration delay of 60 μs and an integration time of 500 μs. Results were analyzed with a two-wavelengths signal ratio: [intensity (665 nm)/intensity (620 nm)]*104.
as §2, §3

[5] = molecular target: T3, Brdt(BD1) (Homo sapiens, UniProt Q58F21); assay: HTRF BET selectivity profile, Brdt(BD1)
T3 construct: GST tagged bromodomain proteins were purchased from BPS Bioscience; purchased BPS Bioscience
Description: as §4, §2, §3

[6] = molecular target: T4, Brd3(BD2) (Homo sapiens, UniProt Q15059); assay: HTRF BET selectivity profile, Brd3(BD2)
T4 construct: GST tagged bromodomain proteins were purchased from BPS Bioscience; purchased BPS Bioscience
Description: as §4, §2, §3

[7] = molecular target: T5, Brd2(BD2) (Homo sapiens, UniProt P25440); assay: HTRF BET selectivity profile, Brd2(BD2)
T5 construct: GST tagged bromodomain proteins were purchased from BPS Bioscience; purchased BPS Bioscience
Description: as §1, §2, §3

[8] = mean of three experiments, NA = IC50 > 50 μM, read-out: Brd4(8D1) IC50
[9] = triplicates, NA = IC50 > maximal concentration of compound used

T1 sequence (P25440 74-180 limits assumed): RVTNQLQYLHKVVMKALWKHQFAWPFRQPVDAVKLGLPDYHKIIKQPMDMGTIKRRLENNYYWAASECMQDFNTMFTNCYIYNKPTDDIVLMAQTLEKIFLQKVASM
T4 sequence (Q15059 306-415 limits assumed): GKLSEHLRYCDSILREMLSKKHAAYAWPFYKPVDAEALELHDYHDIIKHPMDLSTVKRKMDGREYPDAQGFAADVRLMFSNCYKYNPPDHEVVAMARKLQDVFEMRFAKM
Chain of Brd3(BD1) (Q15059 34-140 limits assumed): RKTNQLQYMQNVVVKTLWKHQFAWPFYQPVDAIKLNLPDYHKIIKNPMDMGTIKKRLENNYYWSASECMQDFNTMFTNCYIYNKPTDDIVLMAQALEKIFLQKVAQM
T5 sequence (P25440 344-453 limits assumed): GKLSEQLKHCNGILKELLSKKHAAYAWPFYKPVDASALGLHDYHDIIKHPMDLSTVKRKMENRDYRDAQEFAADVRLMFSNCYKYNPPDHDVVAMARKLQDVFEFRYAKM

Compound: O=C1CCCc2cc(S(=O)(=O)N3CCC(C(=O)NCc4cccs4)CC3)ccc2N1 [Compound 11b]
IC50 [1, 9]: > 50000 nM

Compound: CCn1cnc2c1c(=O)[nH]c(=O)n2Cc1ccc(CNS(=O)(=O)CCOC)cc1 [Compound 21b]
IC50 [1, 9]: 5200 nM

Compound: CCn1cnc2c1c(=O)[nH]c(=O)n2Cc1ccc(CNS(C)(=O)=O)cc1 [Compound 20b]
IC50 [1, 9]: 4300 nM

Compound: CCn1cnc2c1c(=O)[nH]c(=O)n2Cc1ccc(CNS(=O)(=O)CC(C)C)cc1 [Compound 21a]
IC50 [1, 9]: 2900 nM

Compound: Cc1noc(C)c1CNC(=O)C1CCC(CNS(=O)(=O)c2ccc3c(c2)CCCC(=O)N3)CC1 (stereo not drawn) [Compound 8a]
IC50 [1, 9]: 22000 nM

Compound: O=C1CCCc2cc(S(=O)(=O)NCc3ccc(C(=O)NCc4cccc(O)c4)cc3)ccc2N1 [Compound 15b]
IC50 [1, 9]: 46000 nM

Compound: O=C1CCCc2cc(S(=O)(=O)N3CCC(C(=O)NCCc4cccs4)CC3)ccc2N1 [Compound 11c]
IC50 [1, 9]: > 50000 nM

Compound: CCn1cnc2c1c(=O)[nH]c(=O)n2Cc1ccc(CNS(=O)(=O)c2ccn(C(C)C)n2)cc1 [Compound 24a]
IC50 [1, 9]: 2700 nM

Compound: CCn1cnc2c1c(=O)[nH]c(=O)n2Cc1ccc(CNS(=O)(=O)c2ccc3oncc3c2)cc1 [Compound 26a]
IC50 [1, 9]: 2200 nM

Compound: CCn1cnc2c1c(=O)[nH]c(=O)n2Cc1ccc(CNS(=O)(=O)CCCN2CCOCC2)cc1 [Compound 22b]
IC50 [1, 9]: 7500 nM

Compound: O=C1CCCc2cc(S(=O)(=O)NCC3CCC(C(=O)NCc4cccc(O)c4)CC3)ccc2N1 (stereo not drawn) [Compound 7c]
IC50 [1, 9]: 23000 nM

Compound: O=C1CCCc2cc(S(=O)(=O)NCC3CCC(C(=O)NCc4cccs4)CC3)ccc2N1 (stereo not drawn) [Compound 5a]
IC50 [1, 9]: > 50000 nM

Compound: COC(=O)C1CCC(CNS(=O)(=O)c2ccc3c(c2)CCCC(=O)N3)CC1 (stereo not drawn) [Compound 1c, Methyl 4-((2-oxo-2,3,4,5-tetrahydro-1H-benzo[b]azepine-7-sulfonamido)methyl)cyclohexanecarboxylate]
IC50 [1, 9]: 53000 nM

Compound: CCn1cnc2c1c(=O)[nH]c(=O)n2Cc1ccc(CNS(=O)(=O)c2cc(C)ns2)cc1 [Compound 24c]
IC50 [1, 9]: 1700 nM

Compound: CCn1cnc2c1c(=O)[nH]c(=O)n2Cc1ccc(CN)cc1 [Compound 20a, 3-(4-(aminomethyl)benzyl)-7-ethyl-1H-purine-2,6(3H,7H)-dione trifluoroacetic salt]
IC50 [1, 9]: 27000 nM

Compound: O=C1CCCc2cc(S(=O)(=O)NCc3ccc(C(=O)NCc4cccnc4)cc3)ccc2N1 [Compound 14b]
IC50 [1, 9]: > 25000 nM

Compound: CCn1cnc2c1c(=O)[nH]c(=O)n2Cc1ccc(CNS(=O)(=O)c2cn(C)c(C)n2)cc1 [Compound 23b]
IC50 [1, 9]: 1700 nM

Continued, values first:

IC50 [1, 8]: 984 nM
IC50 [1, 9]: 964 nM and 2700 nM
Ratio 4-1 vs 4-2 [1]: 29
IC50 [2]: 9.6 µM
Ratio 3-1 vs 3-2 [2]: 0.8
IC50 [3]: 4.37 µM
Ratio 2-1 vs 2-2 [3]: 0.9
IC50 [4]: 28 µM
IC50 [5]: 9540 nM
IC50 [6]: 7270 nM
IC50 [7]: 3.94 µM
Compound: CCn1c(CSc2nc3nc(C)cc(C)n3n2)nc2c1c(=O)[nH]c(=O)n2Cc1ccc(CNS(=O)(=O)c2ccc3c(c2)CCCC(=O)N3)cc1 [Compound 32b]

IC50 [1, 8]: 3460 nM
IC50 [1, 9]: 3500 nM
Ratio 4-1 vs 4-2 [1]: 1
IC50 [2]: 5.71 µM
Ratio 3-1 vs 3-2 [2]: 0.4
IC50 ([3]; read-out: Brd2(BD1) IC50): 4.35 µM
Ratio 2-1 vs 2-2 [3]: 0.7
IC50 [4]: 4.21 µM
IC50 [5]: 3360 nM
IC50 [6]: 2130 nM
IC50 ([7]; read-out: Brd2(BD2) IC50): 3.08 µM
Compound: CCn1cnc2c1c(=O)[nH]c(=O)n2Cc1ccc(CNS(=O)(=O)c2ccc3c(c2)CCCC(=O)N3)c2ccccc12 [Compound 31c]

IC50 [1, 8]: 202 nM
IC50 [1, 9]: 202 nM
Ratio 4-1 vs 4-2 [1]: 22
IC50 [2]: 0.258 µM
Ratio 3-1 vs 3-2 [2]: 10
IC50 ([3]; read-out: Brd2(BD1) IC50): 0.367 µM
Ratio 2-1 vs 2-2 [3]: >6
IC50 [4]: 4.39 µM
IC50 [5]: 474 nM
IC50 [6]: 2440 nM
IC50 ([7]; read-out: Brd2(BD2) IC50): 2.26 µM
Compound: CCn1cnc2c1c(=O)[nH]c(=O)n2Cc1ccc(CNS(=O)(=O)c2ccc(OC3CCCCC3)cc2)cc1 [Compound 43a]

IC50 [1, 8]: 766 nM
IC50 [1, 9]: 766 nM
Ratio 4-1 vs 4-2 [1]: 11
IC50 [2]: 0.94 µM
Ratio 3-1 vs 3-2 [2]: 3
IC50 ([3]; read-out: Brd2(BD1) IC50): 3.49 µM
Ratio 2-1 vs 2-2 [3]: 2
IC50 [4]: 8.31 µM
IC50 [5]: 2150 nM
IC50 [6]: 3030 nM
IC50 ([7]; read-out: Brd2(BD2) IC50): 5.58 µM
Compound: CCn1cnc2c1c(=O)[nH]c(=O)n2Cc1ccc(CNS(=O)(=O)c2ccc3c(c2)CCC(=O)N3)cc1 [Compound 27b]

IC50 [1, 9]: 6800 nM
Compound: CCn1cnc2c1c(=O)[nH]c(=O)n2Cc1ccc(CNC(=O)[C@@H]2CCCN(C(=O)OC(C)(C)C)C2)cc1 [Compound 39a]

IC50 [1, 9]: 18000 nM
Compound: CCn1cnc2c1c(=O)[nH]c(=O)n2Cc1ccc(CNC(=O)C(N)c2ccc(C)cc2)cc1 (stereo not drawn) [Compound 40a]

IC50 [1, 9]: 2300 nM
Compound: CCC[C@H](NC(=O)OC(C)(C)C)C(=O)NCc1ccc(Cn2c(=O)[nH]c(=O)c3c2ncn3CC)cc1 [Compound 39b]

IC50 [1, 9]: 4900 nM
Compound: CCn1cnc2c1c(=O)[nH]c(=O)n2Cc1ccc(CNC(=O)C(NC(=O)OC(C)(C)C)c2ccc(C)cc2)cc1 (stereo not drawn) [Compound 37b]

IC50 [1, 9]: 769 nM
Compound: CCn1cnc2c1c(=O)[nH]c(=O)n2Cc1ccc(CNS(=O)(=O)c2ccc3c(c2)n(C)c(=O)n3C)cc1 [Compound 26b]

IC50 [1, 9]: 817 nM
Compound: CCn1cnc2c1c(=O)[nH]c(=O)n2Cc1ccc(CNS(=O)(=O)c2ccc3c(c2)CCN3C(C)=O)cc1 [Compound 26c]

IC50 [1, 9]: 749 nM
Compound: CCn1cnc2c1c(=O)[nH]c(=O)n2Cc1ccc(CNC(=O)c2ccc(N3CCc4ccccc4C3)cc2)cc1 [Compound 34c]

IC50 [1, 9]: 8100 nM
Compound: CCn1cnc2c1c(=O)[nH]c(=O)n2Cc1ccc(CNC(=O)[C@H]2CC[C@H](CNC(=O)OC(C)(C)C)CC2)cc1 [Compound 38b]

IC50 [1, 9]: 2800 nM
Compound: CCCC(=O)N1CCC(C(=O)NCc2ccc(Cn3c(=O)[nH]c(=O)c4c3ncn4CC)cc2)CC1 [Compound 34b]

IC50 [1, 9]: 729 nM
Compound: CCn1cnc2c1c(=O)[nH]c(=O)n2Cc1ccc(CNS(=O)(=O)c2ccc(N)cc2)cc1 [Compound 28b]

IC50 [1, 9]: 1500 nM
Compound: CCn1cnc2c1c(=O)[nH]c(=O)n2Cc1ccc(CNC(=O)[C@@H]2CCC[C@H](NC(=O)OC(C)(C)C)C2)cc1 [Compound 39c]

IC50 [1, 9]: 600 nM
Compound: CCn1cnc2c1c(=O)[nH]c(=O)n2Cc1ccc(CNS(=O)(=O)c2ccc(-c3coc(C)n3)cc2)cc1 [Compound 30a]

IC50 [1, 9]: 2800 nM
Compound: CCn1cnc2c1c(=O)[nH]c(=O)n2Cc1ccc(CNC(=O)C2CCCC(O)C2)cc1 (stereo not drawn) [Compound 35a]

IC50 [1, 9]: 32000 nM
Compound: CCC[C@@H](N)C(=O)NCc1ccc(Cn2c(=O)[nH]c(=O)c3c2ncn3CC)cc1 [Compound 40b]

IC50 [1, 9]: > 50000 nM
Compound: CCn1cnc2c1c(=O)[nH]c(=O)n2Cc1ccc(CNC(=O)[C@@H]2CCCNC2)cc1 [Compound 41c]

IC50 [1, 9]: 1600 nM
Compound: CCn1cnc2c1c(=O)[nH]c(=O)n2Cc1ccc(CNS(=O)(=O)c2ccccc2)cc1 [Compound 29a]

IC50 [1, 9]: > 50000 nM
Compound: CCn1cnc2c1c(=O)[nH]c(=O)n2Cc1ccc(CNC(=O)[C@H]2CC[C@H](CN)CC2)cc1 [Compound 41a]
